Results reported in PMC5884943, “Discovery of Novel Inhibitors of Indoleamine 2,3-Dioxygenase 1 Through Structure-Based Virtual Screening” (Frontiers in Pharmacology, 2018).
Like-named read-outs stand apart in the source and are kept apart here.

Columns and labels:
IDO1 in HeLa cells = biological target: T1, IDO1 in HeLa cells (Homo sapiens, UniProt P14902); experiment: HeLa cellular IDO1 assay (kynurenine OD 480 nm after IFN-γ); format: cell-based; settings: IDO1 inhibition in HeLa cells, 48 h
T1 construct: endogenous in cells; host or cells: HeLa (ATCC CCL-2), stimulated with recombinant human IFN-γ
T1 sequence (P14902 whole entry): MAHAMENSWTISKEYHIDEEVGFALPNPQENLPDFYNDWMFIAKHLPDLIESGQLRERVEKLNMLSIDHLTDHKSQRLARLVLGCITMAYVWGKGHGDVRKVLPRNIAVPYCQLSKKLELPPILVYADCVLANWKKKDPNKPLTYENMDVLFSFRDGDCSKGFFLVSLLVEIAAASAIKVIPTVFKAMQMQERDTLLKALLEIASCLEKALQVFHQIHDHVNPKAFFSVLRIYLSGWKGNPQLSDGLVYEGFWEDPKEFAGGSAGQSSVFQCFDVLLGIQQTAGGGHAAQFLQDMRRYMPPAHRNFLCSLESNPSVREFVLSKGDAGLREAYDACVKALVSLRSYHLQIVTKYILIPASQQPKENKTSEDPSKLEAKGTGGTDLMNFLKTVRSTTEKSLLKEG
Method: We chose HeLa cell line (ATCC, Cat. No. CCL-2, 4965442) to detect whether our compounds could inhibit IDO activity at cellular level by optical density (OD) assay. The assay was performed in 96-well flat bottom plate (CORNING, Cat. No. 3903) seeded with 5,000 cells in a final volume of 100 μL. Each well 80 μL HeLa cells were incubated overnight at 37°C in EMEM (Invitrogen, Cat. No. 11095098) supplemented with 10% FBS (Invitrogen, Cat. No. 10099-141, Lot. No. 8153379). Then compounds that have been serial diluted were added in corresponding well and 10 μL Recombinant Human IFN-γF (Peprotech, Cat. No. 300-02) was added in each well except wells for Min (Medium containing 0.5% DMSO with cells). The mixture of cells were incubated at 37°C, 5% CO2 for 48 h. Then transferred 90 μL of supernatant to 96-well plate (CORNING, Cat. No. 3599) and store at −20°C fridge for colormetric analysis. The next day, 10 μL of 6.1 N trichloroacetic acid (Sigma, Cat. No. T0699) were added in each well after transferred 80 μL supernatant to 96-well plate (CORNING, Cat. No. 3894). Then the mixture was incubated at 50°C for 30 min. Sediments were removed by centrifuged for 10 min at 2,500 rpm. Seventy microliters of 70 μL of 2% (w/v) p-dimethylaminobenzaldehyde (Sigma-Aldrich, Cat. No. 15647-7) was added after 70 μL of the supernatant were transferred to assay plate (CORNING, Cat. No. 3635). Finally, OD-value was measured at 480 nm using an EnSpire (PE).

human IDO1 protein = biological target: T2, human IDO1 protein (Homo sapiens, UniProt P14902); experiment: Enzymatic IDO1 assay (Absorbance 321 assay); format: biochemical; settings: for inhibition at 20 µM / Inhibition ratio (%) @ 20 μM: 20 μM compound; for inhibition at 20 µM: read-out: Inhibition ratio (%) @ 20 μM; for IC50: IDO1 enzymatic level; for Avg_Inh (%) @ 50uM: average inhibition, Table S2; for Background (%): background signal of the compound in the absorbance assay
T2 construct: purchased ChemPartner Lot; No. 20160706
T2 sequence (P14902 whole entry): as above
Method: The standard assay mixture contained modified potassium phosphate buffer at pH 6.5, 100 μM L-tryptophan (Sigma, Cat. […] No. […]). […] Then the assay plate was read at OD321 kinetically in Spectramax. […] Fit the data in […]5.0 software to obtain IC50-values using Equation (2): (2) Y=Bottom+Top-Bottom/1+10^(logIC50-X)×HillSlope where Y stands for inhibition percentage and X stands for compound concentration. All determinations were carried out in duplicate.

IDO1 = settings: Figure 1, published IDO1 inhibitors, cited from earlier work

Row | SMILES | Avg_Inh (%) @ 50uM (human IDO1 protein) | Background (%) (human IDO1 protein) | also measured
1 | CCOc1cc(C(=O)NC(=S)Nc2c(O)ccc3ccccc23)cc(OCC)c1OCC [DC-I02806] |  |  | IC50 (IDO1 in HeLa cells): 18.2 µM; inhibition at 20 µM (human IDO1 protein): 75.3%; IC50 (human IDO1 protein): 18.7 µM
2 | O=C(NC(=S)Nc1c(O)ccc2ccccc12)c1ccccc1Br [DC-I02808] |  |  | IC50 (IDO1 in HeLa cells): 46.4 µM; inhibition at 20 µM (human IDO1 protein): 61.3%; IC50 (human IDO1 protein): 17.9 µM
3 | Cc1ccc(Cl)cc1N1COc2ccc3ccccc3c2C1 [DC-I02802] |  |  | IC50 (IDO1 in HeLa cells): 56 µM; inhibition at 20 µM (human IDO1 protein): 42.2%; IC50 (human IDO1 protein): 44.2 µM
4 | Cc1ccc(-c2csc3nnc(SCC(=O)Nc4ccc5c(c4)OCO5)n23)cc1 [Amg-1] |  |  | IC50 (IDO1; ref Meininger et al., 2011): 36 µM
6 | Clc1ccc(N2COc3ccc4ccccc4c3C2)cc1 [DC-I028] | 82.33% | 55.25% | IC50 (IDO1 in HeLa cells): 89.1 µM; inhibition at 20 µM (human IDO1 protein): 58%; Inhibition ratio (%) @ 50 μM (human IDO1 protein; 50 μM compound): 82%; IC50 (human IDO1 protein): 21.6 µM
7 | COc1ccc(C(=O)NC(=S)Nc2c(O)ccc3ccccc23)cc1Br [DC-I02805] |  |  | Hela / Cellular IC50 (IDO1 in HeLa cells): No activity; inhibition at 20 µM (human IDO1 protein): 54.7%; IC50 (human IDO1 protein): 13.7 µM
8 | Cc1nc2ccccc2cc1C(=O)N/N=C/c1cccc(Cl)c1 [DCI-065] | 26.49% | 68.09% | 
9 | Nc1ccccc1/C=C1/C(=O)Nc2ccccc21 [DCI-009] | 12.24% | 52.98% | 
10 | Cc1nn(C)cc1CN(C)C(=O)c1cc2ccccc2oc1=O [DCI-063] | 2.41% | 54.16% | 
11 | Oc1ccc2ccccc2c1Sc1nnnn1-c1ccccc1 [DC-I02813] |  |  | inhibition at 20 µM (human IDO1 protein): 15.6%
12 | Cc1cc(C)c(S(=O)(=O)N2CCC(C(N)=O)CC2)cc1C [DCI-087] | -2.50% | 34.87% | 
13 | O=C(CC1Nc2ccccc2NC1=O)NCc1ccccc1 (centres unmarked) [DCI-039] | -1.03% | 36.31% | 
14 | CC(O)Cn1c(=O)c(=O)[nH]c2ccccc21 (centres unmarked) [DCI-051] | 6.69% | 57.46% | 
15 | O=C1c2ccccc2C(=O)N1CNCc1cc(=O)[nH]c(=O)[nH]1 [DCI-054] | 4.51% | 48.55% | 
16 | O=C(OCc1ccc(Cl)cc1)c1cc2ccccc2cc1O [DCI-003] | 35.38% | 51.94% | 
17 | Cc1onc(-c2ccccc2Cl)c1C(=O)Nc1cccc([N+](=O)[O-])c1 [DCI-067] | 28.06% | 37.16% | 
18 | CC(=O)Nc1ccc(NC(=O)C2CC(=O)N(c3ccccc3)C2)cc1 (centres unmarked) [DCI-006] | 2.62% | 34.97% | 

Row | SMILES | Avg_Inh (%) @ 50uM (human IDO1 protein) | Background (%) (human IDO1 protein) | also measured
19 | Oc1cccc(C(O)CNCc2c(Cl)cccc2Cl)c1 (centres unmarked) [DCI-052] | 3.32% | 31.34% | 
20 | O=c1cnc2ccccc2n1Cc1cccc(Cl)c1 [DCI-010] | 18.26% | 46.13% | 
21 | Cc1cccc(C)c1N1CC(C(=O)Nc2cccc3ccccc23)CC1=O (centres unmarked) [DCI-020] | 10.24% | 35.53% | 
22 | O=C(NCCc1cccc(Cl)c1)c1cccc2ccccc12 [DCI-104] | 25.72% | 41.51% | 
23 | CCn1c(SCc2nc3ccccc3[nH]2)nc2cc(C(=O)OC)ccc2c1=O [DCI-103] | 43.77% | 52.04% | 
24 | Cc1cc2ccccc2n2c(SCC(=O)Nc3ccc(S(N)(=O)=O)cc3)nnc12 [DCI-099] | 27.63% | 49.90% | 
25 | Cc1c(-c2ccccc2)nc(-c2ccccc2)[nH]c1=O [DCI-045] | 11.41% | 39.40% | 
26 | N#Cc1c(SCC(N)=O)nc2c(c1-c1cccnc1)CCC2 [DCI-007] | -0.85% | 44.80% | 
27 | Cc1ccc([N+](=O)[O-])cc1N1COc2ccc3ccccc3c2C1 [DC-I02804] |  |  | IC50 (IDO1 in HeLa cells): 98.4 µM; inhibition at 20 µM (human IDO1 protein): 39.1%; IC50 (human IDO1 protein): 27.8 µM
28 | O=C(CSc1nnc(COc2ccc(Cl)cc2Cl)o1)Nc1ccccn1 [DC-I090] | 95.14% | 34.84% | Inhibition ratio (%) @ 20 μM (human IDO1 protein): 41.43%
29 | N#CCn1nc(-c2ccc(Cl)cc2)c2c1-c1ccccc1C2 [DCI-077] | 51.64% | 57.47% | 
30 | CCn1c(SCC(=O)Nc2ccccc2[N+](=O)[O-])nnc1-c1ccc(O)cc1 [DCI-068] | 5.69% | 35.54% | 
31 | CC(=O)c1ccc(N2COc3ccc4ccccc4c3C2)cc1 [DC-I02801] |  |  | inhibition at 20 µM (human IDO1 protein): 17.8%
32 | O=C(Nc1ccccc1OCC1CCCO1)NC1CCCCC1 (centres unmarked) [DCI-050] | 0.29% | 31.57% | 
33 | CC(=O)N(C)c1ccc(-c2c(O)ccc3ccccc23)cc1 [DC-I02812] |  |  | inhibition at 20 µM (human IDO1 protein): 4.69%
34 | Cc1cc(-c2cccs2)c2c(N)c(C(=O)NCCc3c[nH]c4ccccc34)sc2n1 [DC-I079] | 85.60% | 60.62% | Inhibition ratio (%) @ 20 μM (human IDO1 protein): 36.42%
35 | c1ccc2c3c(c(CN4CCCCC4)cc2c1)COC3 [DCI-062] | 8.78% | 33.45% | 
36 | Cc1cc(C)c2c(N)c(C(=O)Nc3ccc(S(N)(=O)=O)cc3)sc2n1 [DCI-078] | -8.99% | 62.57% | 

More lines, main results first:

Row | Avg_Inh (%) @ 50uM (human IDO1 protein) | Background (%) (human IDO1 protein) | SMILES | also measured
37 | 21.71% | 35.63% | CCc1ccc(OCC(=O)Nc2ccccc2C(N)=O)c(Br)c1 [DCI-074] | 
38 | 43.35% | 40.50% | Cc1ccccc1C(=O)Oc1ccc2ccc(O)cc2c1 [DCI-076] | 
39 | 79.98% | 55.42% | O=C(COc1ccc2ccccc2c1)c1ccc(Br)cc1 [DCI-075] | 
40 | 59.00% | 48.79% | O=C1OC(c2ccccc2)c2ccc3ccccc3c21 (centres unmarked) [DCI-042] | 
41 | 63.02% | 33.85% | Nc1ccc(Br)cc1C(O)c1ccc(Cl)cc1 (centres unmarked) [DC-I032] | Inhibition ratio (%) @ 20 μM (human IDO1 protein): 25.26%
42 | 34.49% | 44.32% | COc1cc2c(cc1OC)C(c1ccc(Br)cc1)OCC2 (centres unmarked) [DCI-022] | 
43 | 46.52% | 35.28% | COc1cc(C)c(Cl)cc1S(=O)(=O)Nc1cccc(C)c1C [DCI-070] | 
44 | 40.17% | 40.73% | Cc1ccc([N+](=O)[O-])cc1NC(=O)COc1ccc2ccccc2c1Br [DCI-083] | 
45 | 45.38% | 34.53% | OC1Cc2ccccc2Sc2c(Cl)cccc21 (centres unmarked) [DCI-033] | 
46 | -4.72% | 37.26% | CC(=O)Nc1ccc(NC(=O)COc2ccc(Br)cc2C)cc1 [DCI-085] | 
47 | 67.78% | 57.09% | Cc1oc2ccc(O)cc2c1C(=O)c1ccc(Br)cc1 [DCI-057] | 
